Laboratory results: patent publication EP0450936A1, “Monoclonal antibody to avermectins” (MERCK & CO. INC., priority 1990, dated 1991)

Key:
[1] = detection of avermectin in mouse serum by competitive liquid phase RIA after intraperitoneal injection; assay type: in vivo, BALB/c mice; settings: for Concentration per tube: serum at 1:10 dilution
Excerpt: Monoclonal antibody specifically reactive with a common epitope or common epitopes contained within the compounds of the avermectin family and derivatives thereof are used serologically to identify and quantitate avermectins, including ivermectin, in animal body fluids and cell-free extracts. Body fluids include, but are not limited to, blood, serum, plasma, milk, urine, cerebrospinal fluid and the like. Cell-free extracts as used herein are defined as the fluids derived from disrupted cells. The avermectins can be identified and the concentration determined by a variety of immunoassays or serological assays which include, but are not limited to: immunoradiometric assays, employing labelled antibodies, Miles and Hales, Nature 219: 186 […] or a sandwich variant according to Addison and Hales, Hormone. Meta. Res. 3: 59 (1971); enzyme immunoassays, employing competitive assays with antigen-enzyme conjugates according to the method of Van Weeman and Schours, F.E.B.S. Lett. 15: 232 (1971) or enzyme-labelled antibody assays according to the procedure of Envall and Perlman, Immunochem. 8: 871 (1971) or a variant of the enzyme-labelled antibody assay which employs detection by a second antibody according to the process of Hammarstrom et al., Proc. Natl. Acad. Sci. USA 72: 1528 (1975) or non-competitive sandwich (ELISA) methods, see Nakamura et al., in Handbood of Experimental Immunology, Vol. 1, Immunochemistry, D. M. Weir, ed. 4th Edition (1986), Blackwell Scientific Publications, Oxford, pp. 27.1-27.20; or any other assay which will determine the concentration or presence of avermectin. The preferred assay is a competitive inhibition liquid phase radioimmuno assay (RIA). The avermectin concentration in animal body fluids is determined by diluting the fluid in an appropriate assay buffer. An appropriate assay buffer may include, but is not limited to, buffered saline, phosphate buffer, phosphate buffered saline, Dulbecco's phosphate buffered saline, Dulbecco's calcium-and-magnesium-free buffered saline and Tris buffer containing about 0.1 % CHAPSO with Tris-CHAPSO being preferred. The labelled antigen (³H-Avm) is diluted to a concentration of about 200 pg to about 700 pg, with about 500 pg being preferred, and contacted with an anti-avermectin monoclonal antibody at a concentration that will bind about 25% to about 75% of the labelled antigen, with about 50% being preferred. To the labelled antigen-antibody mixture is added an appropriate concentration or dilution of the unknown or sample containing avermectin or the standard containing a known amount of avermectin. The reactants are incubated at about 4° C to about 30° C, with about 25° C being preferred, for about 30 minutes to about 4 h, with about 2.5 h being preferred. All dilutions are made in the assay buffer and all determinations are made in duplicate. Non-antibody-bound radioactive avermectin is removed from the reaction mixture by chromatographic, precipitation, immunoprecipitation or adsorption techniques with adsorption of the unbound antigen onto dextran-coated activated charcoal being preferred. The dextran-coated charcoal is prepared by suspending activated charcoal, USP, at about 3% (w/v) in about 10 mM phosphate buffer, pH about 7.5, containing about 0.25% (w/v) dextran, about 60,000 to about 90,000 average mol. wt., with about 70,000 average mol. wt. being preferred. The dextran-coated activated charcoal is washed and resuspended in assay buffer and stored at a concentration of about 3%. About 1 ml of the dextran-coated activated charcoal suspension (dilution predetermined) is added to each sample and the samples are incubated for about 10 min at about 4° C. The charcoal is pelleted by centrifugation at about 3500 rpm for about 15 min. The supernatant quid is collected and the radioactivity counted in a liquid scintillation counter. […]

[2] = test system: monoclonal antibody 3A6-1 Mab; test: competitive inhibition liquid phase RIA (monoclonal antibody specificity); assay type: binding, mouse; settings: 50 ng inhibitor, 500 pg 3H-Avm B1a; for % ^3H-Tritium bound: antibody amount binding about 50% of label (Mab alone: 42)
Method: (§1) Specificity is determined by a competitive inhibition liquid phase RIA. The specificity is determined by contacting a known amount of labelled antigen (³H-Avm B1a) with constant amounts of other avermectins or ivermectin and then contacting this mixture with a constant amount of antibody specific for the labelled antigen. The concentration of antibody is an amount that is sufficient to bind about 50% of the labelled antigen employed in the assay.
as §1, with “B1a), 500 pg” for “B1a)”

| Compound | Concentration per tube ([1]; 15 min after 10 mg per Kg IP in sesame oil) [ng] | Concentration per tube ([1]; 30 min after 10 mg per Kg IP in sesame oil) [ng] | Concentration per tube ([1]; 60 min after 10 mg per Kg IP in sesame oil) [ng] | concentration at 0.25 h ([1]; mouse, serum, 10 mg/kg, 15 min after 10 mg per Kg IP in sesame oil, corrected for volume (50 µl) and dilution (1:10)) [ng/mL] | concentration at 0.5 h ([1]; mouse, serum, 10 mg/kg, 30 min after 10 mg per Kg IP in sesame oil, corrected for volume (50 µl) and dilution (1:10)) [ng/mL] | concentration at 1 h ([1]; mouse, serum, 10 mg/kg, 60 min after 10 mg per Kg IP in sesame oil, corrected for volume (50 µl) and dilution (1:10)) [ng/mL] | % Inhibition [2] [%] | % ^3H-Tritium bound [2] [%] |
| --- | --- | --- | --- | --- | --- | --- | --- | --- |
| CCC(C)[C@H]1O[C@]2(C=C[C@@H]1C)C[C@@H]1C[C@@H](C/C=C(\C)[C@@H](O[C@H]3C[C@H](OC)[C@@H](O[C@H]4C[C@H](OC)[C@@H](O)[C@H](C)O4)[C@H](C)O3)[C@@H](C)/C=C/C=C3\CO[C@@H]4[C@H](O)C(C)=C[C@@H](C(=O)O1)[C@]34O)O2 (stereo partly drawn) [B1a, avermectin B1a] | 2.4 | 13 | 42 | 480 | 2600 | 8400 | 53 | 20 |
| CC[C@H](C)[C@H]1O[C@@]2(C[C@@H]3C[C@@H](C/C=C(\C)[C@@H](O[C@H]4C[C@H](OC)[C@@H](O[C@H]5C[C@H](OC)[C@@H](O)[C@H](C)O5)[C@H](C)O4)[C@@H](C)/C=C/C=C4\CO[C@@H]5[C@H](O)C(C)=C[C@@H](C(=O)O3)[C@]45O)O2)C[C@H](O)[C@@H]1C [B2a, avermectin B2a] |  |  |  |  |  |  | 58 | 18 |
| 22, 23-dihydroavermectin B₁ [Ivm] |  |  |  |  |  |  | 63 | 16 |
